For assay [1], the target named is ERAP1 (Homo sapiens (Human), UniProt Q9NZ08). In words: In vitro ERAP activity assay, ERAP1 with L-AMC substrate. The format is biochemical. The note with it: L-AMC as substrate; read-out: IC50 on ERAP1 or ERAAP using L-AMC as substrate. Here is the method: (§1) The enzymatic activity of ERAP1 or 2 was assayed using L-AMC (L-Leucine-7-amido-4-methylcoumarin hydrochloride) or R-AMC (L-Arginine-7-amido-4-methylcoumarin hydrochloride) respectively. Hepes at 50 mM with 100 mM NaCl at pH 7 was used as buffer. Briefly, 60 nL of test compounds were added in 384-wells plates (dark, non-binding surface) by acoustic dispensing with nanoacoustic dispenser Echo (Labcyte) and pre-incubated 30 minutes at ambient temperature with 10 μL of ERAP 0.8 μg/mL or 1 μg/mL or vehicle. The reaction was then started with the addition of 10 μL of substrate at 10 μM. The final concentration of ERAP, substrate and DMSO was 0.5 μg/mL, 5 μM and 0.4% respectively. For the kinetic readout a Victor 3V (Perkin-Elmer) was used with excitation at 380 nm and emission at 450 nm. The fluorescence was measured each 3 minutes during one hour.
Chain of ERAP1 (Q9NZ08 whole entry): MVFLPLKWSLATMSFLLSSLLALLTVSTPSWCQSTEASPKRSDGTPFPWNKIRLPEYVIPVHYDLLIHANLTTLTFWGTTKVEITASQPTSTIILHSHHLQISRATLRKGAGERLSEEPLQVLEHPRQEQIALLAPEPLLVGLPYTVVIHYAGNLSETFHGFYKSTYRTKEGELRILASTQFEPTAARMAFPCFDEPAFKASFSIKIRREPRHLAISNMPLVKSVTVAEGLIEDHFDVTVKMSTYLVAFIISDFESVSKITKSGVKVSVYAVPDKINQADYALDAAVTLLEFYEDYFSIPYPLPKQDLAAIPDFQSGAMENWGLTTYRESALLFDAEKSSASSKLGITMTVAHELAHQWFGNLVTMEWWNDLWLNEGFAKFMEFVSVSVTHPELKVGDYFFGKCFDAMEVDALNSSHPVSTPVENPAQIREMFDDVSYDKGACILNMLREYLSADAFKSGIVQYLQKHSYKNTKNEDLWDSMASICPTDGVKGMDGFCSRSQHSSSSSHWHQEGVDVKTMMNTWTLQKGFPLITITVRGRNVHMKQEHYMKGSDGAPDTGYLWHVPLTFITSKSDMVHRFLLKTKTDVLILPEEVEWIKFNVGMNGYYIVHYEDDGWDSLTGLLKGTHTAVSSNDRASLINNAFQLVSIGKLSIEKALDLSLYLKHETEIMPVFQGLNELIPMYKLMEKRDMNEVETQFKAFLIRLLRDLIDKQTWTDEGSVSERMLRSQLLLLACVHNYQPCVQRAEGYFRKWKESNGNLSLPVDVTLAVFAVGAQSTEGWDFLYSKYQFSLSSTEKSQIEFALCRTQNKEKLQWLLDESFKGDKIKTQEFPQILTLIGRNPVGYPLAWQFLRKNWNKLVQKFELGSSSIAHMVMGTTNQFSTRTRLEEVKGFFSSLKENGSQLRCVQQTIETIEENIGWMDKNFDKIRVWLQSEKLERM
(§2) The Z and Z′ factors were calculated according to J.-H. Zhang, T. D. Y. Chung, K. R. Oldenburg, A Simple Statistical Parameter for Use in Evaluation and Validation of High Throughput Screening Assays, J. Biomol. Screen., 4 (1999) 67-73. Data analysis was performed using Xlfit® v 5.0 or GraphPad Prism® v 4.0.
(§3) Percentages of inhibition at different concentrations were obtained as described above and IC50s were carried out as 8-point dose response curves and reported as the average of at least three independent measurements. […] Data analysis was performed using Xlfit® v 5.0 or GraphPad Prism® v 4.0. Nonlinear curve fitting and statistical analysis was done using built-in functions.

For assay [2], the target named is ERAP2 (Homo sapiens (Human), UniProt Q6P179). Put plainly: In vitro ERAP activity assay, ERAP2 with R-AMC substrate. The format is biochemical. Set-up: IC50 on ERAP2 using R-AMC as substrate: scale not given here. The note with it: for IC50 / IC50 on ERAP2 using R-AMC as substrate: R-AMC as substrate; for IC50: read-out: IC50 on ERAP2 using R-AMC as substrate. Here is the method: as §1, §2, §3
Chain of ERAP2 (Q6P179 whole entry): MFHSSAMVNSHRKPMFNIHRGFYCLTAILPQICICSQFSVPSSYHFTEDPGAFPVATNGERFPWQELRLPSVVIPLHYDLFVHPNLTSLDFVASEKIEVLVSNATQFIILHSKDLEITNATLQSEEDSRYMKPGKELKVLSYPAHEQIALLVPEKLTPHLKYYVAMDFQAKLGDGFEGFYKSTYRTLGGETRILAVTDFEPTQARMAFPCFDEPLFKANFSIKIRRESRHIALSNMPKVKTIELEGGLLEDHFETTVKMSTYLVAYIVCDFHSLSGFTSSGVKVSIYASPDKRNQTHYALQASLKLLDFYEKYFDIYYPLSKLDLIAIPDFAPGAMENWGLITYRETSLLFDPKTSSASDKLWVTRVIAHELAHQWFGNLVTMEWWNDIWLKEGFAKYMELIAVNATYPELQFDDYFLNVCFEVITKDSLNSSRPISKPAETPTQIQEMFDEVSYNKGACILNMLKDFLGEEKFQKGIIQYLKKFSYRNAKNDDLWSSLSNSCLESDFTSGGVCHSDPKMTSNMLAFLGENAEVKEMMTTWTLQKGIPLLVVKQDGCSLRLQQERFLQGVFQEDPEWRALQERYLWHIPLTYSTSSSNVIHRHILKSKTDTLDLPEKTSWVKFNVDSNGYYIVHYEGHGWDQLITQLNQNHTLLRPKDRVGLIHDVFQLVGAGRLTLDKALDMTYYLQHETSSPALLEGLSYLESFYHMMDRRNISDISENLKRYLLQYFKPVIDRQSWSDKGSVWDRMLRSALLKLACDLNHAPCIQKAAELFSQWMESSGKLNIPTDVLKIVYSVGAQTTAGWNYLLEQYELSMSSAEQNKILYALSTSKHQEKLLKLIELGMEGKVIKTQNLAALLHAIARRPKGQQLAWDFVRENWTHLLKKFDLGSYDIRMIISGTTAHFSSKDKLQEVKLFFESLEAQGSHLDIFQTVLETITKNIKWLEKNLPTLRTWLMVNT

Usually IC50 stands for the concentration at which inhibition is half-maximal. One may read the inhibition as the share of the control response that was lost under treatment.

Turning to `COc1ccc(C[C@@H](C(=O)NO)n2cc(CNS(=O)(=O)c3ccc(-c4ccncc4)s3)nn2)cc1` [Compound 36], the IC50 is greater than 5 µM in assay [1] and less than 0.5 µM in assay [2].
For the compound `COc1ccc(C[C@@H](C(=O)NO)n2cc(CNS(=O)(=O)c3ccc(-c4cccnc4)s3)nn2)cc1` [Compound 38], the 50% inhibitory concentration (IC50) in assay [2] is less than 0.5 µM.
With `Cc1ccc(S(=O)(=O)NCc2cn([C@@H](Cc3ccc(O)cc3)C(=O)NO)nn2)s1` [Compound 16], the “IC50 on ERAP2 using R-AMC as substrate” value in assay [2] is reported as “+ +”.
Regarding `COc1ccc(C[C@@H](C(=O)NO)n2cc(CN(C)S(=O)(=O)c3ccc(-c4ccccn4)s3)nn2)cc1` [Compound 46], the IC50 in assay [2] was less than 0.5 µM.
With `O=C(NO)[C@H](Cc1c[nH]c2ccccc12)n1cc(CNS(=O)(=O)c2ccc(-c3ccccc3)s2)nn1` [Compound 4], the IC50 in assay [1] and in assay [2] was greater than 5 µM in each case.
On to `COc1ccc(C[C@@H](C(=O)NO)n2cc(CNS(=O)(=O)c3ccc(-c4ccccn4)s3)nn2)cc1Cl` [Compound 53], for which the results for the half-maximal inhibitory concentration (IC50) in assay [1] and in assay [2] were less than 5 µM and less than 0.5 µM, respectively.
With `O=C(NO)[C@H](Cc1ccc(O)cc1)n1cc(CNS(=O)(=O)c2ccsc2)nn1` [Compound 17], in assay [1], the IC50 is greater than 5 µM. Further, in assay [2], the “IC50 on ERAP2 using R-AMC as substrate” value is reported as “+ +”.
Regarding `CC(C)(C)Oc1ccc(C[C@@H](C(=O)NO)n2cc(CNS(=O)(=O)c3ccc(-c4ccccc4)s3)nn2)cc1` [Compound 26], in assay [2], the IC50 was less than 0.5 µM.
Consider `COc1ccc(C[C@@H](C(=O)NO)n2cc(CN(C3CC3)S(=O)(=O)c3ccc(-c4ccccn4)s3)nn2)cc1` [Compound 57], for which, in assay [1], the IC50 is greater than 5 µM. Besides, the “IC50 on ERAP2 using R-AMC as substrate” value in assay [2] is “+ +”.
For `O=C(C[C@@H](Cc1c[nH]c2ccccc12)n1nncc1CNS(=O)(=O)c1ccc(-c2ccccc2)s1)NO` [Compound 30], the half-maximal inhibitory concentration (IC50) in assay [2] was greater than 5 µM.
Regarding `COc1ccc(C[C@@H](C(=O)NO)n2cc([C@@H]3CCCN3S(=O)(=O)c3ccc(-c4ccccc4)s3)nn2)cc1` [Compound 59], the IC50 was less than 5 µM in assay [1] and greater than 5 µM in assay [2].
For `O=C(C[C@H](Cc1ccc(O)cc1)n1cc(CNS(=O)(=O)c2ccc(-c3ccccc3)s2)nn1)NO` [Compound 7], the “IC50 on ERAP2 using R-AMC as substrate” value in assay [2] is reported as “+ +”.
Consider `COc1ccc(C[C@@H](C(=O)NO)n2cc([C@H](C)NS(=O)(=O)c3ccc(-c4ccccn4)s3)nn2)cc1` [Compound 47], for which the IC50 in assay [2] is less than 0.5 µM.
For the compound `O=C(NO)[C@H](Cc1ccc(O)c(Cl)c1)n1cc(CNS(=O)(=O)c2ccc(-c3ccccc3)s2)nn1` [Compound 40], the IC50 is greater than 5 µM in assay [1] and less than 0.5 µM in assay [2].
For `CN(Cc1cn([C@@H](Cc2ccc(O)cc2)C(=O)NO)nn1)S(=O)(=O)c1ccc(-c2ccccc2)s1` [Compound 13], in assay [1], the IC50 is greater than 5 µM. The “IC50 on ERAP2 using R-AMC as substrate” value in assay [2] is reported as “+ +”.
On to `C#Cc1ccc(C[C@@H](C(=O)NO)n2cc(CNS(=O)(=O)c3ccc(-c4ccccc4)s3)nn2)cc1` [Compound 54], for which the concentration for half-maximal inhibition (IC50) is less than 5 µM in assay [1] and less than 0.5 µM in assay [2].
Take `O=C(NO)[C@@H](Cc1ccc(O)cc1)n1cc(CNS(=O)(=O)c2ccc(-c3ccccc3)s2)nn1` [Compound 8]: the IC50 in assay [1] is greater than 5 µM. Moreover, in assay [2], the “IC50 on ERAP2 using R-AMC as substrate” value was “+ +”.
With `O=C(NO)[C@@H](Cc1c[nH]c2ccccc12)n1cc(CNS(=O)(=O)c2ccc(-c3ccccc3)s2)nn1` [Compound 2], the IC50 in assay [1] and in assay [2] was greater than 5 µM throughout.
As for `O=C(NO)[C@H](Cc1ccc(O)c(F)c1)n1cc(CNS(=O)(=O)c2ccc(-c3ccccc3)s2)nn1` [Compound 45], the IC50 in assay [1] is greater than 5 µM; in assay [2], less than 0.5 µM.
`CN(Cc1cnnn1[C@H](CC(=O)NO)Cc1ccc(O)cc1)S(=O)(=O)c1ccc(-c2ccccc2)s1` [Compound 32]: the “IC50 on ERAP2 using R-AMC as substrate” value in assay [2] was “+ +”.
For `O=C(NO)[C@H](Cc1ccc2c(c1)OCO2)n1cc(CNS(=O)(=O)c2ccc(-c3ccccn3)s2)nn1` [Compound 37], the figures for the 50% inhibitory concentration (IC50) in assay [1] and in assay [2] were greater than 5 µM and less than 0.5 µM, respectively.
Regarding `O=C(NO)[C@H](Cc1ccc(O)cc1)n1nncc1CNS(=O)(=O)c1ccc(-c2ccccc2)s1` [Compound 34], the “IC50 on ERAP2 using R-AMC as substrate” value in assay [2] is given as “+ +”.
`COc1ccc(C[C@@H](C(=O)NO)n2cc([C@@H](C)NS(=O)(=O)c3ccc(-c4ccccn4)s3)nn2)cc1` [Compound 48]: the IC50 in assay [2] was less than 5 µM.
In the case of `O=C(NO)[C@H](Cc1ccc(O)cc1)n1cc(CNS(=O)(=O)c2ccc(-c3ccccc3)s2)nn1` [Compound 10], in assay [1], the IC50 is greater than 5 µM. In addition, the “IC50 on ERAP2 using R-AMC as substrate” value in assay [2] is “+ +”.
For `O=C(NO)[C@H](Cc1ccc(O)cc1)n1cc(CNS(=O)(=O)c2cccs2)nn1` [Compound 15], the IC50 in assay [1] was greater than 5 µM. Further, in assay [2], the “IC50 on ERAP2 using R-AMC as substrate” value is “+ +”.
Turning to `CNC(=O)c1cccc(-c2ccc(S(=O)(=O)NCc3cn([C@@H](Cc4ccc(OC)cc4)C(=O)NO)nn3)s2)c1` [Compound 43], the IC50 in assay [1] was greater than 5 µM; in assay [2], less than 0.5 µM.
Turning to `O=C(NO)[C@H](Cc1ccc(O)cc1)n1cc(CNS(=O)(=O)c2ccc(-c3cccnc3)s2)nn1` [Compound 29], in assay [2], the IC50 is less than 0.5 µM.
In the case of `COc1ccc(C[C@@H](C(=O)NO)n2cc(CNS(=O)(=O)c3ccc(-c4ccccn4)s3)nn2)cc1OC` [Compound 41], the IC50 is less than 5 µM in assay [1] and less than 0.5 µM in assay [2].
For the compound `N=C(NO)c1ccc(C[C@@H](C(=O)NO)n2cc(CNS(=O)(=O)c3ccc(-c4ccccc4)s3)nn2)cc1` [Compound 55], the half-inhibitory concentration (IC50) in assay [1] is less than 5 µM; in assay [2], less than 0.5 µM.
In the case of `O=C(NO)[C@H](Cc1ccc(O)cc1)n1cc(CNS(=O)(=O)c2ccc(Br)s2)nn1` [Compound 14], in assay [1], the IC50 was greater than 5 µM. Also, in assay [2], the “IC50 on ERAP2 using R-AMC as substrate” value was “+ +”.
On to `COc1ccc(C[C@@H](C(=O)NO)n2cc(CNS(=O)(=O)c3ccc(-c4ccccc4)s3)nn2)cc1` [Compound 24], for which, in assay [1], the IC50 is greater than 5 µM.
On to `CNC(=O)c1ccc(-c2ccc(S(=O)(=O)NCc3cn([C@@H](Cc4ccc(O)cc4)C(=O)NO)nn3)s2)cc1` [Compound 11], for which the “IC50 on ERAP2 using R-AMC as substrate” value in assay [2] is listed as “+ +”.
`NCc1ccc(-c2ccc(S(=O)(=O)NCc3cn([C@@H](Cc4ccc(O)cc4)C(=O)NO)nn3)s2)cc1` [Compound 12]: the IC50 in assay [1] is greater than 5 µM. The “IC50 on ERAP2 using R-AMC as substrate” value in assay [2] is “+ +”.
As for `COc1ccc(C[C@@H](C(=O)NO)n2cc(CNS(=O)(=O)c3ccc(-c4ccccn4)s3)nn2)cc1F` [Compound 52], the IC50 in assay [1] is greater than 5 µM; in assay [2], less than 0.5 µM.
Consider `O=C(C[C@@H](Cc1ccc2ccccc2c1)n1cc(CNS(=O)(=O)c2ccc(-c3ccccc3)s2)nn1)NO` [Compound 6], for which the IC50 in assay [1] was greater than 5 µM. The “IC50 on ERAP2 using R-AMC as substrate” value in assay [2] is recorded as “+ +”.
`CN(Cc1cn([C@@H](Cc2c[nH]c3ccccc23)C(=O)NO)nn1)S(=O)(=O)c1ccc(-c2ccccc2)s1` [Compound 3]: the IC50 in assay [1] is greater than 5 µM. Also, the “IC50 on ERAP2 using R-AMC as substrate” value in assay [2] is listed as “+ +”.
`CC(C)(C)Oc1ccc(C[C@@H](C(=O)NO)n2cc(CNS(=O)(=O)c3ccc(-c4ccccn4)s3)nn2)cc1` [Compound 27]: the IC50 in assay [2] was less than 0.5 µM.
The same measure, in the same setting: the result for `CN(Cc1cn([C@H](CC(=O)NO)Cc2ccc(O)cc2)nn1)S(=O)(=O)c1ccc(-c2ccccc2)s1` [Compound 9] reads greater than 5 µM.
On to `O=C(NO)[C@H](Cc1ccc(O)cc1)n1cc(CNS(=O)(=O)c2sccc2Br)nn1` [Compound 18], for which the “IC50 on ERAP2 using R-AMC as substrate” value in assay [2] is recorded as “+ +”.
`COCCOc1ccc(C[C@@H](C(=O)NO)n2cc(CNS(=O)(=O)c3ccc(-c4ccccn4)s3)nn2)cc1` [Compound 51]: the IC50 in assay [2] is less than 0.5 µM.
Take `O=C(C[C@H](Cc1ccc(O)cc1)n1nncc1CNS(=O)(=O)c1ccc(-c2ccccn2)s1)NO` [Compound 33]: the IC50 in assay [1] is greater than 5 µM.
For the compound `CC(C)C[C@H](NC(=O)[C@@H](O)[C@H](N)Cc1ccccc1)C(=O)O` [Bestatin, reference compound], in assay [2] (at 2 mM, ERAP1 or 2 activity assay, read-out: inhibition (reference inhibitor)), the inhibition at 2000 µM came to 100%.
Turning to `O=C(NO)[C@@H](Cc1ccc(O)cc1)n1nncc1CNS(=O)(=O)c1ccc(-c2ccccc2)s1` [Compound 35], the IC50 in assay [2] is greater than 5 µM.
On to `O=C(C[C@H](Cc1ccc(O)cc1)n1nncc1CNS(=O)(=O)c1ccc(-c2ccccc2)s1)NO` [Compound 31], for which the “IC50 on ERAP2 using R-AMC as substrate” value in assay [2] is reported as “+ +”.
As to `O=C(NO)[C@H](Cc1ccc(OC(F)(F)F)cc1)n1cc(CNS(=O)(=O)c2ccc(-c3ccccc3)s2)nn1` [Compound 22], in assay [2], the IC50 was less than 0.5 µM.
On the same count and under the same terms, the result for `O=C(C[C@@H](Cc1c[nH]c2ccccc12)n1cc(CNS(=O)(=O)c2ccc(-c3ccccc3)s2)nn1)NO` [Compound 1] reads greater than 5 µM; that for `COc1ccccc1C[C@@H](C(=O)NO)n1cc(CNS(=O)(=O)c2ccc(-c3ccccn3)s2)nn1` [Compound 50], greater than 5 µM.
`O=C(NO)[C@H](Cc1ccc(OC(F)(F)F)cc1)n1cc(CNS(=O)(=O)c2ccc(-c3ccccn3)s2)nn1` [Compound 21]: the IC50 in assay [2] is less than 0.5 µM.

The record behind these values is patent US20240101542A1, “ERAP INHIBITORS” (UNIVERSITE DE LILLE, priority 2020, published 2024).
